{"source": "PubChem BioAssay AID288", "about": "(DTP/NCI, 2004)", "system": "BDF1 mice, M5076 sarcoma s.c., survival/tumor T/C", "assay": "NCI In Vivo Anticancer Drug Screen. Data for tumor model Sarcoma M5076 (subcutaneous) in B6D2F1 (BDF1) mice", "experimental": "The antitumor activity of compounds was measured in mice bearing transplantable tumors. Survival or tumor size were measured and the results are expressed as the measurement made in the treated group (T) divided by the measurement made in the vehicle treated control group (C). The tumor model used in this assay is Sarcoma M5076 (subcutaneous) in B6D2F1 (BDF1) mice", "key": {"[1]": {"conditions": "endpoint: median survival time, dose: 50.0 mg/kg/injection, schedule: Q01DX009 (ip), vehicle: saline with Tween-80, higher = longer survival"}, "[2]": {"conditions": "endpoint: median survival time, dose: 100.0 mg/kg/injection, schedule: Q01DX009 (ip), vehicle: saline with Tween-80, higher = longer survival"}, "[3]": {"conditions": "endpoint: median survival time, dose: 200.0 mg/kg/injection, schedule: Q01DX009 (ip), vehicle: saline with Tween-80, higher = longer survival"}}, "note": "Values joined by “and” are separate entries in the source; they are usually repeats but may differ in a detail not shown here. Equal entries are not always repeated. Results filed as inconclusive are left out."}
{"compound": "CCC/C=C/C=C/C(=O)OC1/C(=C/C(=O)OC)CC2CC(C(C)O)OC(=O)CC(O)CC3CC(OC(C)=O)C(C)(C)C(O)(CC4C/C(=C/C(=O)OC)CC(/C=C/C(C)(C)C1(O)O2)O4)O3", "note": "(stereo not given)", "values": [{"measurement": "T/C", "setting": "endpoint: median survival time, dose: 5.0 micrograms/kg/injection, schedule: Q01DX009 (ip), vehicle: saline + Tween-80 + alcohol, higher = longer survival", "result": "100 % of control"}, {"measurement": "T/C", "setting": "endpoint: median survival time, dose: 5.0 micrograms/kg/injection, schedule: Q01DX009 (ip), vehicle: saline + alcohol, higher = longer survival", "result": "106 % of control"}, {"measurement": "T/C", "setting": "endpoint: median survival time, dose: 10.0 micrograms/kg/injection, schedule: Q01DX009 (ip), vehicle: saline + Tween-80 + alcohol, higher = longer survival", "result": "97 % of control"}, {"measurement": "T/C", "setting": "endpoint: median survival time, dose: 10.0 micrograms/kg/injection, schedule: Q01DX009 (ip), vehicle: saline + alcohol, higher = longer survival", "result": "96 % of control"}, {"measurement": "T/C", "setting": "endpoint: median survival time, dose: 20.0 micrograms/kg/injection, schedule: Q01DX009 (ip), vehicle: saline + Tween-80 + alcohol, higher = longer survival", "result": "111 % of control"}, {"measurement": "T/C", "setting": "endpoint: median survival time, dose: 20.0 micrograms/kg/injection, schedule: Q01DX009 (ip), vehicle: saline + alcohol, higher = longer survival", "result": "111 % of control"}, {"measurement": "T/C", "setting": "endpoint: median survival time, dose: 80.0 micrograms/kg/injection, schedule: Q01DX009 (ip), vehicle: saline + Tween-80 + alcohol, higher = longer survival", "result": "103 % of control"}, {"measurement": "T/C", "setting": "endpoint: median survival time, dose: 80.0 micrograms/kg/injection, schedule: Q01DX009 (ip), vehicle: saline + alcohol, higher = longer survival", "result": "103 % of control"}, {"measurement": "T/C", "setting": "endpoint: median tumor weight (est.), dose: 5.0 micrograms/kg/injection, schedule: Q01DX009 (ip), vehicle: saline + Tween-80 + alcohol, higher = larger tumour", "result": "102 % of control"}, {"measurement": "T/C", "setting": "endpoint: median tumor weight (est.), dose: 5.0 micrograms/kg/injection, schedule: Q01DX009 (ip), vehicle: saline + alcohol, higher = larger tumour", "result": "198 % of control"}, {"measurement": "T/C", "setting": "endpoint: median tumor weight (est.), dose: 10.0 micrograms/kg/injection, schedule: Q01DX009 (ip), vehicle: saline + Tween-80 + alcohol, higher = larger tumour", "result": "89 % of control"}, {"measurement": "T/C", "setting": "endpoint: median tumor weight (est.), dose: 10.0 micrograms/kg/injection, schedule: Q01DX009 (ip), vehicle: saline + alcohol, higher = larger tumour", "result": "107 % of control"}, {"measurement": "T/C", "setting": "endpoint: median tumor weight (est.), dose: 20.0 micrograms/kg/injection, schedule: Q01DX009 (ip), vehicle: saline + Tween-80 + alcohol, higher = larger tumour", "result": "83 % of control"}, {"measurement": "T/C", "setting": "endpoint: median tumor weight (est.), dose: 20.0 micrograms/kg/injection, schedule: Q01DX009 (ip), vehicle: saline + alcohol, higher = larger tumour", "result": "10 % of control"}, {"measurement": "T/C", "setting": "endpoint: median tumor weight (est.), dose: 40.0 micrograms/kg/injection, schedule: Q01DX009 (ip), vehicle: saline + Tween-80 + alcohol, higher = larger tumour", "result": "11 % of control"}]}
{"compound": "CC1CCC(NC(=O)N(CCCl)N=O)CC1", "note": "(stereo not given)", "values": [{"measurement": "T/C", "setting": "endpoint: median survival time, dose: 2.5 mg/kg/injection, schedule: Q04DX009 (ip), vehicle: saline with Tween-80, higher = longer survival", "result": "109 % of control"}, {"measurement": "T/C", "setting": "endpoint: median survival time, dose: 5.0 mg/kg/injection, schedule: Q02DX011 (ip), vehicle: Klucel (hydroxypropylcellulose) (HPC), higher = longer survival", "result": "296 % of control"}, {"measurement": "T/C", "setting": "endpoint: median survival time, dose: 5.0 mg/kg/injection, schedule: Q02DX033 (ip), vehicle: saline with Tween-80, higher = longer survival", "result": "230 % of control"}, {"measurement": "T/C", "setting": "endpoint: median survival time, dose: 5.0 mg/kg/injection, schedule: Q04DX005 (ip), vehicle: other, higher = longer survival", "result": "191 % of control"}, {"measurement": "T/C", "setting": "endpoint: median survival time, dose: 5.0 mg/kg/injection, schedule: Q04DX009 (ip), vehicle: saline with Tween-80, higher = longer survival", "result": "150 % of control"}, {"measurement": "T/C", "setting": "endpoint: median survival time, dose: 10.0 mg/kg/injection, schedule: Q02DX033 (ip), vehicle: saline with Tween-80, higher = longer survival", "result": "252 % of control"}, {"measurement": "T/C", "setting": "endpoint: median survival time, dose: 10.0 mg/kg/injection, schedule: Q04DX005 (ip), vehicle: other, higher = longer survival", "result": "233 % of control"}, {"measurement": "T/C", "setting": "endpoint: median survival time, dose: 10.0 mg/kg/injection, schedule: Q04DX009 (ip), vehicle: saline with Tween-80, higher = longer survival", "result": "298 % of control"}, {"measurement": "T/C", "setting": "endpoint: median survival time, dose: 20.0 mg/kg/injection, schedule: Q01DX003 (ip), vehicle: saline with Tween-80, higher = longer survival", "result": "160 % of control"}, {"measurement": "T/C", "setting": "endpoint: median survival time, dose: 20.0 mg/kg/injection, schedule: Q04DX009 (ip), vehicle: saline with Tween-80, higher = longer survival", "result": "320 % of control"}, {"measurement": "T/C", "setting": "endpoint: median survival time, dose: 30.0 mg/kg/injection, schedule: Q01DX001 (ip), vehicle: saline with Tween-80, higher = longer survival", "result": "154 % of control and 171 % of control"}, {"measurement": "T/C", "setting": "endpoint: median survival time, dose: 30.0 mg/kg/injection, schedule: Q01DX001 (oral), vehicle: saline with Tween-80, higher = longer survival", "result": "160 % of control and 191 % of control"}, {"measurement": "T/C", "setting": "endpoint: median survival time, dose: 40.0 mg/kg/injection, schedule: Q01DX001 (oral), vehicle: saline with Tween-80, higher = longer survival", "result": "179 % of control and 237 % of control (2×)"}, {"measurement": "T/C", "setting": "endpoint: median survival time, dose: 50.0 mg/kg/injection, schedule: Q01DX001 (ip), vehicle: saline with Tween-80, higher = longer survival", "result": "153 % of control and 226 % of control (2×)"}, {"measurement": "T/C", "setting": "endpoint: median survival time, dose: 50.0 mg/kg/injection, schedule: Q01DX001 (oral), vehicle: saline with Tween-80, higher = longer survival", "result": "194 % of control and 229 % of control (2×)"}, {"measurement": "T/C", "setting": "endpoint: median survival time, dose: 60.0 mg/kg/injection, schedule: Q01DX001 (oral), vehicle: saline with Tween-80, higher = longer survival", "result": "229 % of control (2×) and 233 % of control"}]}
{"compound": "COc1ccc(/C=N/OC(=S)NC2CCCCC2)cc1OC", "values": [{"measurement": "T/C", "setting": "[1]", "result": "102 % of control"}, {"measurement": "T/C", "setting": "[2]", "result": "86 % of control"}, {"measurement": "T/C", "setting": "[3]", "result": "92 % of control"}]}
{"compound": "COC1CC23OC2(C1)C1C=CC3N(C(=O)OCC(Cl)(Cl)Cl)N1C(=O)OCC(Cl)(Cl)Cl", "note": "(stereo not given)", "values": [{"measurement": "T/C", "setting": "[1]", "result": "100 % of control and 94 % of control"}, {"measurement": "T/C", "setting": "[2]", "result": "102 % of control and 89 % of control"}, {"measurement": "T/C", "setting": "[3]", "result": "98 % of control and 110 % of control"}, {"measurement": "T/C", "setting": "endpoint: median tumor weight (est.), dose: 50.0 mg/kg/injection, schedule: Q01DX009 (ip), vehicle: saline with Tween-80, higher = larger tumour", "result": "111 % of control and 93 % of control"}, {"measurement": "T/C", "setting": "endpoint: median tumor weight (est.), dose: 100.0 mg/kg/injection, schedule: Q01DX009 (ip), vehicle: saline with Tween-80, higher = larger tumour", "result": "66 % of control and 77 % of control"}, {"measurement": "T/C", "setting": "endpoint: median tumor weight (est.), dose: 200.0 mg/kg/injection, schedule: Q01DX009 (ip), vehicle: saline with Tween-80, higher = larger tumour", "result": "90 % of control"}]}
